# Measured values reported in patent US20250064859A1, “HPSC-DERIVED ARTICULAR CHONDROCYTE COMPOSITIONS, SYSTEMS AND METHODS OF USE THEREOF” (The Children's Medical Center Corporation, priority 2022, published 2025).
# How the values were obtained:
# Assay type in all cases: cell-based, human
# paraxial mesoderm = experiment: Chondrogenic potential of day 14 paraxial mesoderm induced with (420i) or without (420) the Wnt inhibitor in stage 2; settings: 420 mesoderm treated with the Wnt inhibitor from day 3-5 of differentiation/stage 2
# Experimental: Five experiments were conducted, and qPCR tests were performed on the cells after 4 weeks and the data was pooled and analyzed. In a second test, 420 and 420i paraxial mesoderm cells were plated in micromass cultures supplemented with TGFβ and qPCR was performed after 12 weeks of micromass expansion. In a third test, 420 and 420i paraxial mesoderm cells were plated in serum-free monolayer culture with no additional factors and qPCR was performed following 4 weeks of culture. A second group of 420 and 420i paraxial mesoderm cells were plated in serum-free monolayer culture supplemented with either FGF alone or with a mixture of FGF, TGFβ and Forskolin (FSK). qPCR was performed after 4 weeks in culture.
# [1] = system: monolayer-derived chondrocytes; experiment: Micromasses seeded with monolayer-derived chondrocytes and treated with TGFβ or BMP; phenotype and qPCR; settings: for cartilage phenotype induced in micromass culture: monolayer-derived chondrocytes plated in micromass
# Text: FIGS. 9A-9C are bar graphs showing relative mRNA copy number for COL10A1 (growth plate cartilage marker) (FIG. 9A), PRG4 (articular cartilage marker) (FIG. 9B) and COL2A1 (general cartilage marker) (FIG. 9C) of monolayer-derived chondrocytes (derived with either FGF-alone or the combination of TGFβ+FGF+FSK treatment) that were subsequently cultured in micromass for 6 weeks in the presence of TGFβ or BMP4 to generate articular or growth plate-like chondrocytes and cartilage tissues. FIGS. 9D-9F are bar graphs showing mRNA copy number for COL10A1 (FIG. 9D), PRG4 (FIG. 9E) and COL2A1 (FIG. 9F) of monolayer-derived chondrocytes (derived with either FGF-alone or the combination of TGFβ+FGF+FSK treatment) that were subsequently cultured in micromass (uM) for 12 weeks in the presence of TGFβ or BMP4 to generate articular or growth plate-like chondrocytes and cartilage tissues.
# Micromasses were seeded with monolayer-derived chondrocytes and were treated with TGFβ to induce articular cartilage (i.e., to reproduce “superficial zone-like” chondrocytes that express PRG4) or with BMP to induce growth plate cartilage (GPC; i.e., to produce hypertrophic chondrocytes that express COL10A1). Monolayer-derived chondrocytes were generated with the following compositions: FGF alone or TGF+FGF+FSK30.
# [2] = system: micromass cultures (hPSC-derived articular cartilage tissues); experiment: BMP4 challenge of TGFβ3-treated micromass cultures; COL10A1 mRNA normalized to TBP
# Text: FIGS. 17A-17C depict copy number COL10A1 mRNA normalized to TBP in micromass cultures at indicated timepoints and treatment regimens. FIG. 17A depicts copy number COL10A1 mRNA in micromass cultures treated with TGFB3 from 2-24 weeks, and in TGFB3-treated micromass cultures that were switched to BMP4-supplemented media after 2 weeks (BMP4 @2w), 2 weeks, and 4, 6, 8, 10, 12 weeks in which gene expression was quantified after 2, 6, 12, or 24 weeks after switching media to BMP4-supplementation. FIG. 17B and FIG. 17C depict copy number PRG4 (FIG. 17B) and COL10A1 (FIG. 17C) in micromass cultures after 2, 6, 12, and 24 weeks (w).
# FIGS. 17A-C depict copy number COL10A1 mRNA normalized to TBP in micromass cultures at indicated timepoints and treatment regimens. […] Data represents average of 4 biological replicates, error bars indicate standard error.
Compound,chondrogenic potential of paraxial mesoderm (paraxial mesoderm),"COL10A1 (hypertrophic chondrocyte/GPC gene) expression ([1]; micromass, regardless of monolayer treatment prior to micromass culture)",cartilage phenotype induced in micromass culture [1],COL10A1 mRNA response to BMP4 challenge ([2]; micromass treated with TGFβ for 8 weeks or less prior to BMP4),COL10A1 mRNA response to BMP4 challenge ([2]; micromass treated with TGFβ for at least 10 weeks prior to BMP4),PRG4 (articular cartilage gene) expression ([1]; micromass)
"Cc1ccc2nc(NC(=O)CSc3nc4c(c(=O)n3-c3ccccc3)SCC4)sc2c1 [IWP2, N-(6-Methyl-2-benzothiazolyl)-2-[(3,4,6,7-tetrahydro-4-oxo-3-phenylthieno[3,2-d]pyrimidin-2-yl)thio]-acetamide]",increased chondrogenic potential,–,–,–,–,–
"BMP4: Bone Morphogenetic Protein 4, used to induce growth plate cartilage",–,higher,induces growth plate cartilage phenotype,upregulate COL10A1 mRNA,do not upregulate COL10A1 mRNA,–
"TGFB: transforming growth factor β3, TGFβ agonist used to induce articular cartilage",–,–,induces articular-like cartilage phenotype,–,–,higher
